Measured values from ChEMBL document CHEMBL1201862, “PubChem BioAssay data set” (2004).
Active and inactive are the calls of the source.

Columns and labels:
[1] = molecular target: Alkaline phosphatase, placental type (Homo sapiens, UniProt P05187); assay: human placental alkaline phosphatase inhibition – biochemical, luminescence, confirmation (AID 1512); format: functional
[2] = molecular target: Dual specificity protein phosphatase 3 (Homo sapiens, UniProt P51452); assay: SAR VHR1 Fluorescent Assay for In Vitro dose response studies Set 2. [Related pubchem assays (depositor defined):AID1654, AID1661, AID1878]; format: functional
[3] = molecular target: T1, Tyrosine-protein phosphatase non-receptor type 7 (Homo sapiens, UniProt P35236); assay: SAR analysis of chemical inhibitors of HePTP using a Fluorescent assay - Set 2. [Related pubchem assays (depositor defined):AID1059, AID1077, AID1661, AID2085, AID521]; format: functional
T1 sequence (P35236 whole entry): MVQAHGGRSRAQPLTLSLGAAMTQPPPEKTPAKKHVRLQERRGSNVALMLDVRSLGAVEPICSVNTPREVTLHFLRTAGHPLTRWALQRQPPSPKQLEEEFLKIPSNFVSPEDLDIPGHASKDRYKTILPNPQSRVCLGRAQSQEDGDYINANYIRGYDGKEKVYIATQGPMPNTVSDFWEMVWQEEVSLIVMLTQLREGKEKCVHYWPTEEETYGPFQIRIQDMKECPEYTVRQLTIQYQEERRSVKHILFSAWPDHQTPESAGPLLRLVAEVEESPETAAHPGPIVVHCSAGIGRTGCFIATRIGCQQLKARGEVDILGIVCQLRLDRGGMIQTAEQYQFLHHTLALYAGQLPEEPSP

[4] = viability loss in HeLa cells – cytotoxicity control for MgcRacGAP inhibitor project, dose response (AID 624300); format: functional
[5] = system: Vero; assay: cells; format: functional, cell-based; conditions: Chlorocebus sabaeus
[6] = system: Vero; assay: cells; format: functional; conditions: Chlorocebus sabaeus
[7] = molecular target: Perilipin-1/ABHD5 (Homo sapiens, UniProt O60240+Q8WTS1); assay: Luminescence-based biochemical high throughput dose response assay for inhibitors of the interaction of the lipase co-activator protein, abhydrolase domain containing 5 (ABHD5) with perilipin-1 (PLIN1) (2K validation set). [Related pubchem assays (depositor defined):AID493027, AID493057]
[8] = molecular target: 1-acylglycerol-3-phosphate O-acyltransferase ABHD5/Perilipin-5 (Homo sapiens, UniProt Q00G26+Q8WTS1); assay: Luminescence-based biochemical high throughput dose response assay for inhibitors of the interaction of the lipase co-activator protein, abhydrolase domain containing 5 (ABHD5) with perilipin-5 (MLDP; PLIN5) (2K validation set). [Related pubchem assays (depositor defined):AID493035, AID493241]
[9] = Luminescence Cell-Based Dose Response HTS to Identify Inhibitors of 5'UTR Stem-Loop Driven Prion Protein mRNA Translation in H4 Neuroglioblastoma Cells. [Related pubchem assays: 1827 (Project Summary), 1813 (Primary HTS)]; format: functional
[10] = viability of HCT116 lacking mutant beta-catenin – cell-based, human colon tumor, dose response (AID 1045); format: functional;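 note: HCT116 colon tumor cells with beta catenin knocked out; cells exposed to compound for 60 hours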
[11] = molecular target: T2, Protein RecA (Mycobacterium tuberculosis, UniProt P9WHJ3); assay: Fluorescence Cell-Free Homogeneous Dose Retest to Identify Inhibitors of RecA-Intein Splicing Activity. [Related pubchem assays (depositor defined):AID2097, AID2223, AID489010, AID492950]; format: functional
T2 sequence (P9WHJ3 whole entry): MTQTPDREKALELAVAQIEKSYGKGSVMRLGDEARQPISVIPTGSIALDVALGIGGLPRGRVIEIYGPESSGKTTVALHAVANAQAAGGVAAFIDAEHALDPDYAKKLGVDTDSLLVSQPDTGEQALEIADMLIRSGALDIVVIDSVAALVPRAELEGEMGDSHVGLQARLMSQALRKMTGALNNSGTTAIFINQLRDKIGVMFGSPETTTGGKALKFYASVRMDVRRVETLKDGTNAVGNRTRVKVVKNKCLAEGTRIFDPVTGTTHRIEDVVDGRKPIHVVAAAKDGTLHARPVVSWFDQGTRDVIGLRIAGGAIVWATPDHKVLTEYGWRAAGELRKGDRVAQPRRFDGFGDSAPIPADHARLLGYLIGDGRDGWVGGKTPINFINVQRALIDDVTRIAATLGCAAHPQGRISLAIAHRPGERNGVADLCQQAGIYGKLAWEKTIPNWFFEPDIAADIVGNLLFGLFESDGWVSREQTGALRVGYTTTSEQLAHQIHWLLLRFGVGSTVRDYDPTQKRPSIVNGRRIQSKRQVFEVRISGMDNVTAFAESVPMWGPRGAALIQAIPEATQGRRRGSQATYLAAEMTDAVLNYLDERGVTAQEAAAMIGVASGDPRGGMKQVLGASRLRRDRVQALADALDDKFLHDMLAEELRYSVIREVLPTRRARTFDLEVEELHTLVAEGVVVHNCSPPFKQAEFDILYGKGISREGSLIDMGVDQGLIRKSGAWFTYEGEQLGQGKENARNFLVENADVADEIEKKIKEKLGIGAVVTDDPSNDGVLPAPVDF

[12] = molecular target: Photoreceptor-specific nuclear receptor (Homo sapiens, UniProt Q9Y5X4); format: functional, cell-based;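 note: CHO-S cells with Gal4-NCOR and VP16-NR2E3 two-hybrid luciferase reporter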
[13] = microbe, parasite or virus in culture; format: functional; conditions: Mycobacterium tuberculosis
[14] = molecular target: Glucose-6-phosphate 1-dehydrogenase (Homo sapiens, UniProt P11413); assay: inhibition of Homo sapiens G6PD, dose series – biochemical, fluorescence, selectivity assay for P. falciparum G6PD inhibitor project, dose response (AID 504792); format: functional
[15] = Intein inhibitors as potential Tuberculosis drugs, a cytotoxicity screen. [Related pubchem assays (depositor defined):AID2221, AID2223, AID434968, AID435010, AID449749, AID449750, AID489010]; format: functional
[16] = molecular target: T3, Streptokinase A (Streptococcus pyogenes serotype M1, UniProt P10520); assay: viability-normalized secreted streptokinase activity reduction – plasminogen activation absorbance, OD405, dose response (AID 1914); format: functional, Streptococcus pyogenes M1 GAS;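 note: secreted streptokinase activity via plasminogen activation per viability signal from cell pellet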
T3 sequence (P10520 whole entry): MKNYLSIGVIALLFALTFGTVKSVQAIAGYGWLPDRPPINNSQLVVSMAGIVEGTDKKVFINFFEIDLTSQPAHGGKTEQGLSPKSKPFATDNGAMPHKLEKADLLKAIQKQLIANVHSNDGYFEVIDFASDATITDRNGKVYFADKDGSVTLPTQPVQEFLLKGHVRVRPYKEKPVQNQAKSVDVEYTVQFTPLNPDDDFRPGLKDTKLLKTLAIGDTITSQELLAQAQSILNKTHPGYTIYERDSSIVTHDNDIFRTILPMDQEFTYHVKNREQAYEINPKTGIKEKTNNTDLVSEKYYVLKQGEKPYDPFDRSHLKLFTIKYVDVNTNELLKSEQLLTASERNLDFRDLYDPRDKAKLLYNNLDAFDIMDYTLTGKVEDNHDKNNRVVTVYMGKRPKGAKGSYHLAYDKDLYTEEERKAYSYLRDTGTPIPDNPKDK

[17] = NIH3T3 cell viability loss – ATP luminescence, mouse fibroblasts, counter-screen, dose response (AID 2010); format: functional, cell-based;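 note: cells exposed to compound for about 90 hours before reading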
[18] = viability of PTEN-deleted HCT116 cells – cell-based, HCT116 PTEN knockout, dose response (AID 1047); format: functional;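 note: HCT116 colon tumor cells with PTEN knocked out; cells exposed to compound for 60 hours before readout; potency for loss of cell viability measured by luminescence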
[19] = Trypanosoma cruzi growth suppression in host cells – NIH3T3 host cells, beta-gal luminescence, confirmation (AID 2044); format: functional, cell-based;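 note: intracellular parasites grown in NIH/3T3 mouse fibroblasts as host cells; luminescent beta-galactosidase reporter signal from transgenic T. cruzi replicating inside host cells; inhibitors lower the luminescence signal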
[20] = alpha-synuclein stem-loop luciferase translation blockers – H4 neuroglioma cells, luminescence, confirmation (AID 1988); format: functional, cell-based
[21] = system: Streptococcus sp. 'group A'; assay: Streptococcus pyogenes SK(-)GAS viability under kanamycin – luminescence, BacTiterGlo, confirmation, counter-screen for streptokinase expression inhibitor project, dose response (AID 1900); format: functional, organism-based
[22] = luciferase reporter signal suppression in cells – H4 neuroglioma cells, luminescence, dose response (AID 1990); format: functional, cell-based
[23] = molecular target: T4, Replicative DNA helicase DnaB (Mycobacterium tuberculosis, UniProt P9WMR3); assay: DnaB intein splicing inhibitors, dose response, biochemical, cell-free fluorescence (AID 449749); format: functional
T4 sequence (P9WMR3 whole entry): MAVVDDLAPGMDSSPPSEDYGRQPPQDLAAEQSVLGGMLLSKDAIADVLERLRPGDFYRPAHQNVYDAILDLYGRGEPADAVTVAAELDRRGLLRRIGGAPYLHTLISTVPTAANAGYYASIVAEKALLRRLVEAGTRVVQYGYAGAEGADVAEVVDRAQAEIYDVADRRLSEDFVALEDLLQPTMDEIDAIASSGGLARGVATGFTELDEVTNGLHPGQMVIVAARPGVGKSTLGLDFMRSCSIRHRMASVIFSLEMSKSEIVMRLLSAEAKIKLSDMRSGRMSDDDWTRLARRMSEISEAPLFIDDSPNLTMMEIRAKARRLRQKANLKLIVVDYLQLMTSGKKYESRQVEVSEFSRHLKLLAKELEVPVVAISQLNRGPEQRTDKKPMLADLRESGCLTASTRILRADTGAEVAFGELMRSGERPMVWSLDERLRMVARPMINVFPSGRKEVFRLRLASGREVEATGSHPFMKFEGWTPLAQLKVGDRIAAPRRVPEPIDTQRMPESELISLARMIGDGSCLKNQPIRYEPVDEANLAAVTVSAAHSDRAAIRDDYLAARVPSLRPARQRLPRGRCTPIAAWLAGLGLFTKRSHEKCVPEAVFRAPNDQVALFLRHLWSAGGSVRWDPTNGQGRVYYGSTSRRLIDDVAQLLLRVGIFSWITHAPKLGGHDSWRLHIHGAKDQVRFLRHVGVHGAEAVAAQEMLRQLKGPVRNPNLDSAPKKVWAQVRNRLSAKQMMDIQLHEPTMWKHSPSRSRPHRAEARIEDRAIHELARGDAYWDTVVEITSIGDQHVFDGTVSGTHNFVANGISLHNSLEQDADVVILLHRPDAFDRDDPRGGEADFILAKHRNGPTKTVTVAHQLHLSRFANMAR

[24] = system: Streptococcus; assay: GAS UMAA2166 growth inhibition – luminescence, BacTiterGlo, counter-screen for streptokinase expression inhibitor project, dose response (AID 1915); format: functional, organism-based;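 note: potency for reduction of bacterial viability or growth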
[25] = molecular target: Integrin alpha-L (Mus musculus, UniProt P24063); assay: modulators of CD8 T cell-vesicle binding, dose response, powder samples, mouse 2C CD8+ cells (AID 504565); format: functional
[26] = reduction of Shn3 3'UTR-driven luciferase in osteoblasts – cell-based, Clone20 osteoblasts, firefly luciferase, cherry-picked, dose response (AID 624132); format: functional;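 note: firefly luciferase luminescence from reporter carrying the Shn3 3'UTR in osteoblasts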
[27] = non-specific 3'UTR reporter inhibition in Clone20-Shn3RL – cell-based, Renilla luciferase, cherry-picked, counter-screen for Shn3 inhibitor project, dose response (AID 624133); format: functional
[28] = system: T-cell; assay: loss of vesicle association with mouse CD8+ T cells – mouse 2C CD8+ T cells, flow cytometry, dose response (AID 485284); format: functional
[29] = molecular target: T5, Kappa-type opioid receptor (Homo sapiens, UniProt P41145); assay: SAR analysis of Antagonists of the Kappa Opioid Receptor (KOR) using an Image-Based Assay - Set 3. [Related pubchem assays (depositor defined):AID1777, AID1785]; format: functional
[30] = molecular target: Mu-type opioid receptor (Homo sapiens, UniProt P35372); assay: SAR Analysis of Antagonists of the MOR Receptor using an Image-Based Assay - Set 3. [Related pubchem assays (depositor defined):AID1777, AID1785, AID1786, AID1966, AID2133, AID2136, AID2284, AID2285, AID2420]; format: functional
[31] = molecular target: T5, Kappa-type opioid receptor; assay: SAR analysis of small molecule antagonists of the kappa opioid receptor via a luminescent beta-arrestin assay - Set 3. [Related pubchem assays (depositor defined):AID1777, AID1778, AID1785, AID1786, AID1966, AID2133, AID2136, AID2285, AID2495]; format: functional
[32] = molecular target: Delta-type opioid receptor (Homo sapiens, UniProt P41143); assay: SAR Analysis of Antagonists of the DOR Receptor using an Image-Based Assay - Set 3. [Related pubchem assays (depositor defined):AID1777, AID1785]; format: functional;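 note: U2OS cells expressing DOR1 and beta-arrestin GFP stimulated with 100 nM SNC80; imaging of GFP-tagged beta-arrestin moving into spots after receptor activation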
[33] = molecular target: G-protein coupled receptor 55 (Homo sapiens, UniProt Q9Y2T6); assay: selective activators of receptor GPR55 – imaging, U2OS cells, beta-arrestin-GFP redistribution, primary screen (AID 1961); format: functional
G-protein coupled receptor 55, sequence (Q9Y2T6 whole entry): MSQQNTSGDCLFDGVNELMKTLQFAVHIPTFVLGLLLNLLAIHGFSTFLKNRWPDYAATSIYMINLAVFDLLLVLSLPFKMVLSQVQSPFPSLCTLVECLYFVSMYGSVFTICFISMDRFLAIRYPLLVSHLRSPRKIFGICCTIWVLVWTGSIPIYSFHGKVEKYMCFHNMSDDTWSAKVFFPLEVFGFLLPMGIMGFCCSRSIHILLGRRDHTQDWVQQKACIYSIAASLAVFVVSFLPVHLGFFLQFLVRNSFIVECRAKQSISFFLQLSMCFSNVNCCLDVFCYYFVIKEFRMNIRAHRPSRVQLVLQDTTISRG

T5 sequence (P41145 whole entry): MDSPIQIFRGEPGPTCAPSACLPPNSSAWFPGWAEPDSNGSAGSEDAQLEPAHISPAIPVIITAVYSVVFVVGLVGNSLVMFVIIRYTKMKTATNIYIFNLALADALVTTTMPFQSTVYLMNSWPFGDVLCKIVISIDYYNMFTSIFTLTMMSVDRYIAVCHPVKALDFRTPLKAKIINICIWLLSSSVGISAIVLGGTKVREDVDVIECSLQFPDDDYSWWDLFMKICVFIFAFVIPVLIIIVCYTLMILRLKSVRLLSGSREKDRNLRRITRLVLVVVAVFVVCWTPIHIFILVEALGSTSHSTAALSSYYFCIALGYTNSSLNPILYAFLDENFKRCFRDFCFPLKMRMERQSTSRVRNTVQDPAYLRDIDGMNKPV
Glucose-6-phosphate 1-dehydrogenase, sequence (P11413 whole entry): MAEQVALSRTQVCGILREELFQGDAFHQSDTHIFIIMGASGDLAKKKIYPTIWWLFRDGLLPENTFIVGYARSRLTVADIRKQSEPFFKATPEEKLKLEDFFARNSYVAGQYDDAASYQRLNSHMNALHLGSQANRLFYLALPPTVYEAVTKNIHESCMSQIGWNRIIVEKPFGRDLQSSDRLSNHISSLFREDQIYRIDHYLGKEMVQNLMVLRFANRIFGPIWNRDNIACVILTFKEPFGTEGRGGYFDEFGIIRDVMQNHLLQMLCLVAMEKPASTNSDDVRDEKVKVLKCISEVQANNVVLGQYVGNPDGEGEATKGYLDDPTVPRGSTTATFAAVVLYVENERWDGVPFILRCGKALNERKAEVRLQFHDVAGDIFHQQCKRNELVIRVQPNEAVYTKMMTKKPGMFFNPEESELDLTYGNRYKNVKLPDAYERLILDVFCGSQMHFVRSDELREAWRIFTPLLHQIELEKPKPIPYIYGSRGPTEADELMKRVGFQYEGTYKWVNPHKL
Photoreceptor-specific nuclear receptor, sequence (Q9Y5X4 whole entry, the tested form may be a part): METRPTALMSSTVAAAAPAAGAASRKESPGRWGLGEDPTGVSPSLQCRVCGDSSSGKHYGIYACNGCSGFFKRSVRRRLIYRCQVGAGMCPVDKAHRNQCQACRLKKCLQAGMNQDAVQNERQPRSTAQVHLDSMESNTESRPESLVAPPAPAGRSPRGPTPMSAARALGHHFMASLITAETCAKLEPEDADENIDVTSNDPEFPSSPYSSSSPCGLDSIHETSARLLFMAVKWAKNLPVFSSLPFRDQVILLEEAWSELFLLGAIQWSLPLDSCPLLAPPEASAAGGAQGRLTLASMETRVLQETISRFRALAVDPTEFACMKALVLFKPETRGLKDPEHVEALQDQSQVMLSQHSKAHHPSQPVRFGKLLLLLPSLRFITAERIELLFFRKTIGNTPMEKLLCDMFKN
Dual specificity protein phosphatase 3, sequence (P51452 whole entry): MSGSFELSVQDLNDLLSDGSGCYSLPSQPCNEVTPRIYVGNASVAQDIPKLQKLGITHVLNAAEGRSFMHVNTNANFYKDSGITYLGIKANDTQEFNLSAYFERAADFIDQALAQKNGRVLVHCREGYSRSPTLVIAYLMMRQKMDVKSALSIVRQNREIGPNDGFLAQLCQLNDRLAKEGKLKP
Mu-type opioid receptor, sequence (P35372 whole entry): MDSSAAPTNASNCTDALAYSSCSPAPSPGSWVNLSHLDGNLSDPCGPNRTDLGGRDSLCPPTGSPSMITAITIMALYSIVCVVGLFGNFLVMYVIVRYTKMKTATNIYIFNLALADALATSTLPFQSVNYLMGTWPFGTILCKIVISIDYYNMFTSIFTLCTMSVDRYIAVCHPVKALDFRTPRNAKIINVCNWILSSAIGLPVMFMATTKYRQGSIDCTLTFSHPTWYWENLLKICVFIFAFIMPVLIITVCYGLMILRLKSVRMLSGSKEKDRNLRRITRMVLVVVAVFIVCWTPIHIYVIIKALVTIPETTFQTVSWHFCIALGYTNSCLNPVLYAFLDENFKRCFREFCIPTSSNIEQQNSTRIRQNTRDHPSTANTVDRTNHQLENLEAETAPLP
Delta-type opioid receptor, sequence (P41143 whole entry): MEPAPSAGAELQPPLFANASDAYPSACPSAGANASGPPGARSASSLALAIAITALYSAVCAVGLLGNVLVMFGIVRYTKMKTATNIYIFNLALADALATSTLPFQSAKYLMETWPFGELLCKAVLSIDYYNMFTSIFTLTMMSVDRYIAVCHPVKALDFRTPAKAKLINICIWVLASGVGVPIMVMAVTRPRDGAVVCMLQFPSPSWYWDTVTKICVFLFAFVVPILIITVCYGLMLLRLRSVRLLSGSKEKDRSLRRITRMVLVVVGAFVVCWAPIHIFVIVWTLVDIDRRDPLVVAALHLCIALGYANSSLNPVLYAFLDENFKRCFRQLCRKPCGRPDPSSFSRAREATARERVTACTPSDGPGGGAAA
Integrin alpha-L, sequence (P24063 whole entry): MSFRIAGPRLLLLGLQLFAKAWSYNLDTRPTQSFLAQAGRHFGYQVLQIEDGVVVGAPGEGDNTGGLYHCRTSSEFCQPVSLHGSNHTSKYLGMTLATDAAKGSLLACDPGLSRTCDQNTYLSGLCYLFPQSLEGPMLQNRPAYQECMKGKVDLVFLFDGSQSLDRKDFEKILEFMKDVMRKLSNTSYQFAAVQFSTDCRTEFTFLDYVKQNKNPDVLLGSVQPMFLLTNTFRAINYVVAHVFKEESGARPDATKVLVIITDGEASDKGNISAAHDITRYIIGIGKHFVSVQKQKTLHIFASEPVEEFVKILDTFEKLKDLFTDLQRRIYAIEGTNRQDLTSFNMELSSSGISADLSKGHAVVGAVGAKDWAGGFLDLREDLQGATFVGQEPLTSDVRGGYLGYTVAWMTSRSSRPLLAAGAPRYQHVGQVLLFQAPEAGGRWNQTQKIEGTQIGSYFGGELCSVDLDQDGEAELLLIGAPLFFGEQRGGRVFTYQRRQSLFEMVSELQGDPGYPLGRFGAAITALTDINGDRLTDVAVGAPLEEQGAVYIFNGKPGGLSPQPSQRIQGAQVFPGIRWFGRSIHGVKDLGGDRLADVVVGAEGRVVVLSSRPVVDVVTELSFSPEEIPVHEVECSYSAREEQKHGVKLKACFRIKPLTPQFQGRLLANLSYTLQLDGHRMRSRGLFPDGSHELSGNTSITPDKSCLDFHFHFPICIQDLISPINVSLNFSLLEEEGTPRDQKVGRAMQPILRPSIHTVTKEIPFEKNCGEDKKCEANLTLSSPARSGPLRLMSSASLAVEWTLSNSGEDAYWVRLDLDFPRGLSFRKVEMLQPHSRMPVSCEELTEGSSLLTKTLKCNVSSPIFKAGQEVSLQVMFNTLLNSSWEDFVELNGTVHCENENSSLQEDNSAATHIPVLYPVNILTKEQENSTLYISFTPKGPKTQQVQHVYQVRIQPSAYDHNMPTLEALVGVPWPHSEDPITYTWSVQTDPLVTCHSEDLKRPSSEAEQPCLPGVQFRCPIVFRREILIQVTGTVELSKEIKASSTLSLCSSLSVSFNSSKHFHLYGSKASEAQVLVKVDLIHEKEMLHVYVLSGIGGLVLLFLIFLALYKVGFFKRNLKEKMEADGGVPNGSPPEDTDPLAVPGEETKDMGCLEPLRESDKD
1-acylglycerol-3-phosphate O-acyltransferase ABHD5/Perilipin-5, sequence (Q00G26 whole entry, the tested form may be a part): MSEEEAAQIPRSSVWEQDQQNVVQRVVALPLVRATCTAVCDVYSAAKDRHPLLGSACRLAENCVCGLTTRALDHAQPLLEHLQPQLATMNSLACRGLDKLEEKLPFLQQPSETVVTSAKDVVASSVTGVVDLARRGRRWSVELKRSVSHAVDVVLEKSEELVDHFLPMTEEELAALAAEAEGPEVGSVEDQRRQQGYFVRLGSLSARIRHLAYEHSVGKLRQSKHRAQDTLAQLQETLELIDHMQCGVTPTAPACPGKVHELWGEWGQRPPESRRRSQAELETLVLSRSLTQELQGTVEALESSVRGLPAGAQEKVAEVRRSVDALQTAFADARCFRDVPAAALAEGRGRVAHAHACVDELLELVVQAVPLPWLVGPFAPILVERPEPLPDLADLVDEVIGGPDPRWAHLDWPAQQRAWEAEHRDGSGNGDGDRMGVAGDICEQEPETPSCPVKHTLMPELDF
1-acylglycerol-3-phosphate O-acyltransferase ABHD5/Perilipin-5, sequence (Q8WTS1 whole entry, the tested form may be a part): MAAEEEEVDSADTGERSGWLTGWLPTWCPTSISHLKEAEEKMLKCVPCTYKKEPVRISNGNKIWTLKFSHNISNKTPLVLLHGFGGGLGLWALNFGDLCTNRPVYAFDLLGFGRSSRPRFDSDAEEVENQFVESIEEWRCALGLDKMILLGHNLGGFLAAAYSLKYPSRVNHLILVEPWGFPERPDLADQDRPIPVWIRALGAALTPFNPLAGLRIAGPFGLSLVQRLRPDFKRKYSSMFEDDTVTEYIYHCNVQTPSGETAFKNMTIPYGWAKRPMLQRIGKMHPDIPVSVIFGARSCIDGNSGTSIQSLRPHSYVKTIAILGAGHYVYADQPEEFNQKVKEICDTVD

## Cc1ccc(C)c(NC(S)=NNC(=O)c2ccc(Br)o2)c1
[1]
  IC50: > 100 µM (inactive)
[2]
  IC50: > 100 µM (inactive)
[3]
  IC50: > 100 µM (inactive)

## COC(=O)C1=C(C)N(Cc2ccco2)C(=O)/C1=C\c1ccc([N+](=O)[O-])cc1
[4]
  CC50: 62.9 µM (active)
[5]
  IC50: > 25 µM (active)
[6]
  CC50: 17.6 µM (active)
[7]
  IC50: 2.07 µM (active)
[8]
  IC50: 2.27 µM (active)

## COc1ccc(C(=O)c2c(C(F)(F)F)oc3c2C(=O)c2ccccc2C3=O)cc1OC
[9]
  EC50: > 120 µM (not active)
[10]
  EC50: 2.23 µM (active)
[11]
  EC50: 2.02 µM (active)
[12]
  IC50: 1.99 µM (active)
[13]
  CC50: 6.08 µM (active)
[14]
  IC50: > 80 µM (inactive)
[15]
  CC50: 5.78 µM (active)
[16]
  EC50: > 150 µM (not active)
[17]
  EC50: 5.27 µM (active)
[18]
  EC50: 2.34 µM (active)
[19]
  EC50: 0.884 µM (active)
[20]
  EC50: 8.35 µM (active)
[21]
  EC50: 0.514 µM (active)
[22]
  EC50: > 120 µM (not active)
[23]
  AC50: 4.74 µM (active)
[24]
  EC50: 8.91 µM (active)

## COCc1c(C(=O)Nc2cccc(S(=O)(=O)N3CCCCC3)c2)oc2ccccc12
[25]
  EC50: 24.7 µM (inactive)
[26]
  AC50: 9.63 µM (active)
[27]
  AC50: 26.4 µM (active)
[28]
  EC50: 50.8 µM (inactive)

## O=C(Cn1c(=O)c2cccn2c2ccccc21)NCCCN1CCN(Cc2ccccc2)CC1
[29]
  IC50: > 32 µM (inactive)
[30]
  IC50: > 32 µM (inactive)
[31]
  IC50: > 20 µM (inactive)
[32]
  IC50: > 32 µM (inactive)

## CC(C)C[C@@H](CSc1ccc(Br)cc1)N1CCN(CCc2ccccc2)CCC1=O
[33]
  EC50: 7.59 µM (active)
